Article PMC4880283, “Crystal Structures of Putative Sugar Kinases from Synechococcus Elongatus PCC 7942 and Arabidopsis Thaliana” (PLoS ONE, 2016)

Assays:
AtXK-1 [1] = biological target: T1, AtXK-1 (Arabidopsis thaliana, UniProt Q8L794); assay: X-ray crystal structure (soak); assay type: binding; conditions: crystal soaked in 10 mM AMP-PNP, 20 mM MgCl2; ATP site in domain II
T1 construct: gene XK1; mature form (436 aa) without chloroplast transit peptide; forward primer encodes VMSGNKGT; pMCSG7, N-terminal His6 removed by TEV protease, E. coli BL21(DE3)
T1 sequence (Q8L794 43-478): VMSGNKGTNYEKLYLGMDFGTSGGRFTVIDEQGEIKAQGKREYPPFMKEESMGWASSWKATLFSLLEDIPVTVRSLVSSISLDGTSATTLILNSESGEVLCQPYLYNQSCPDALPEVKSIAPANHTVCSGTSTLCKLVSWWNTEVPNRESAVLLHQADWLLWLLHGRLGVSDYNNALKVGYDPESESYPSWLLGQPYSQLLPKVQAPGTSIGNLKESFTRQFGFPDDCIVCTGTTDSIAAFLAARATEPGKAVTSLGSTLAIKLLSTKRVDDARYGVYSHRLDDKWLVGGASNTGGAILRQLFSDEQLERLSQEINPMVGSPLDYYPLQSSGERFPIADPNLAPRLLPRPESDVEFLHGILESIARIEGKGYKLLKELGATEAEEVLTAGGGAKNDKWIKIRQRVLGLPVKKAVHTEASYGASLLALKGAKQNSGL

SePSK [2] = biological target: T2, SePSK (Synechococcus elongatus, UniProt Q31KC7); assay: X-ray crystal structure, […] A (soak); assay type: binding; conditions: crystal soaked in 10 mM AMP-PNP, 20 mM MgCl2; ATP site in domain II
T2 construct: gene PSK; full length (426 aa), pET28-a (Nco I/Xho I), C-terminal His6 tag kept, E. coli BL21(DE3)
T2 sequence (Q31KC7 whole entry, the tested form may be a part): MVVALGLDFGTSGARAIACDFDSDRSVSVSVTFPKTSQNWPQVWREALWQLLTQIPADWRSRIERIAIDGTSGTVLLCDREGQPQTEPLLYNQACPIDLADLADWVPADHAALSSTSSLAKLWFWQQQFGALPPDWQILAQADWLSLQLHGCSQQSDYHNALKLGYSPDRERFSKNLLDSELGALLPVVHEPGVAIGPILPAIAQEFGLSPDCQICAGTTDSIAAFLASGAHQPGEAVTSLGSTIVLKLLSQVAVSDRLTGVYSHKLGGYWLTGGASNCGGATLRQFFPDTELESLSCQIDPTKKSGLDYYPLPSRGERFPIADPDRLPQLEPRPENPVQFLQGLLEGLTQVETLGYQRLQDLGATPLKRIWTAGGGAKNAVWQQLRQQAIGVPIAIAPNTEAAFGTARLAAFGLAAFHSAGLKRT

SePSK [3] = biological target: T2, SePSK; assay: ADP-Glo kinase assay; assay type: biochemical; conditions: 100 uM ATP, no sugar, 1 mM MgCl2, 20 mM HEPES pH 7.4, 298 K
AtXK-1 [4] = biological target: T1, AtXK-1; assay: ADP-Glo kinase assay; assay type: biochemical; conditions: 100 uM ATP, no sugar, 1 mM MgCl2, 20 mM HEPES pH 7.4, 298 K
SePSK [5] = biological target: T3, SePSK (Synechococcus elongatus, UniProt Q31KC7, T11A); assay: ADP-Glo kinase assay; assay type: biochemical; conditions: 5 mM D-ribulose, 100 uM ATP, 1 mM MgCl2, 20 mM HEPES pH 7.4, 298 K; activity much lower than wild type
T3 construct: gene PSK; full length (426 aa), pET28-a (Nco I/Xho I), C-terminal His6 tag kept, E. coli BL21(DE3)
T3 sequence (Q31KC7 whole entry T11A): as the sequence (Q31KC7 whole entry, the tested form may be a part) above, with T11A counted along it

SePSK [6] = biological target: T4, SePSK (Synechococcus elongatus, UniProt Q31KC7, D221A); assay: ADP-Glo kinase assay; assay type: biochemical; conditions: 5 mM D-ribulose, 100 uM ATP, 1 mM MgCl2, 20 mM HEPES pH 7.4, 298 K; activity much lower than wild type
T4 construct: gene PSK; full length (426 aa), pET28-a (Nco I/Xho I), C-terminal His6 tag kept, E. coli BL21(DE3)
T4 sequence (Q31KC7 whole entry D221A): as the sequence (Q31KC7 whole entry, the tested form may be a part) above, with D221A counted along it

SePSK [7] = biological target: T5, SePSK (Synechococcus elongatus, UniProt Q31KC7, D8A); assay: surface plasmon resonance (single-cycle kinetics, CM5); assay type: binding; conditions: rate constant (off-rate), not an equilibrium Kd; 1:1 Langmuir fit; 20 mM HEPES pH 7.5, 100 mM NaCl; 298 K
T5 construct: gene PSK; full length (426 aa), pET28-a (Nco I/Xho I), C-terminal His6 tag kept, E. coli BL21(DE3)
T5 sequence (Q31KC7 whole entry D8A): as the sequence (Q31KC7 whole entry, the tested form may be a part) above, with D8A counted along it

SePSK [8] = biological target: T5, SePSK; assay: ADP-Glo kinase assay; assay type: biochemical; conditions: 5 mM D-ribulose, 100 uM ATP, 1 mM MgCl2, 20 mM HEPES pH 7.4, 298 K; activity much lower than wild type

Structure (SMILES): Nc1ncnc2c1ncn2[C@@H]1O[C@H](COP(=O)(O)OP(=O)(O)NP(=O)(O)O)[C@@H](O)[C@H]1O [AMP-PNP]
- X-ray crystal structure (soak) (AtXK-1 [1]): soaked the crystals of apo-SePSK and apo-AtXK-1 into the reservoir adding AMP-PNP
- X-ray crystal structure, 2.3 A (soak) (SePSK [2]): one SePSK protein molecule is in an asymmetric unit with one AMP-PNP molecule

Structure (SMILES): Nc1ncnc2c1ncn2[C@@H]1O[C@H](COP(=O)(O)OP(=O)(O)OP(=O)(O)O)[C@@H](O)[C@H]1O [ATP]
- ADP-Glo kinase assay (SePSK [3]): both SePSK and AtXK-1 exhibited ATP hydrolysis activity
- ADP-Glo kinase assay (AtXK-1 [4]): both SePSK and AtXK-1 exhibited ATP hydrolysis activity

Structure (SMILES): O=C(CO)[C@H](O)[C@H](O)CO [D-ribulose]
- ADP-Glo kinase assay (SePSK [5]): all of these mutants exhibit much lower activity of ATP hydrolysis after adding D-ribulose
- ADP-Glo kinase assay (SePSK [6]): all of these mutants exhibit much lower activity of ATP hydrolysis after adding D-ribulose
- Dissociation rate constant (koff) (SePSK [7]): 9 ms^-1
- ADP-Glo kinase assay (SePSK [8]): all of these mutants exhibit much lower activity of ATP hydrolysis after adding D-ribulose
